Test system: rabbit ear vein
Assay: Acute local venous toxicity / irritation in the rabbit ear vein (REV)
Type: in vivo
Set-up: Erythema / Edema: scale not given here
Excerpt: This Example illustrates the protective effect of the formulations of the invention as measured by irritation in the rabbit ear vein (REV). A typical protocol for evaluation of the local tolerance for formulations was as follows.
Dosing of animals. The rabbits used were male New Zealand rabbits weighing approximately 2.5 to 4 kg. The rabbits were acclimatized for a period of 10 days following receipt before the start of the study. The rabbits were randomized into groups based on the number of formulations to be studied. Typically 3 rabbits were used per group.
For each group of rabbits, the formulation containing the drug to be tested was dosed in the right marginal ear vein, with the corresponding placebo being dosed at the same time in the left marginal ear vein. The placebos were prepared such that they matched the formulation composition, and the technique of dosing for the drug formulations and the placebo formulations were kept the same. Typical dosing volumes ranged from 1 mL/kg to 5 mL/kg. The formulations were either dosed as (a) bolus injection wherein the entire dosing volume was administered within 5 minutes; (b) 30 minute infusion; or (c) a 2 hour infusion. The formulations were administered through appropriately sized syringes and catheters. The injection sites were marked with indelible ink for identification at each observation period. The rabbits were dosed based upon the Day 1 body weight.
Observation of animals. Each animal was observed cage side at least twice daily for mortality/morbundity. Each animal received a detailed clinical observation once prior to randomization, once prior to dosage administration and once daily thereafter.
Any abnormalities were recorded as they were observed. Observations for local irritation were scored according to the following scale
At each interval the area of irritation (if present) was also measured. The actual length and width in mm was recorded.
On day 3 the animals were euthanized and the tissues from the Pinna of the left and right ear, and any gross lesions (if present) of the ear or ear vein were collected. Histopathology was performed on the collected tissues. After fixation, the pinna was tripped into a total of 4 sections of 1 cm each; one of which included the deposition site (location of the end of the catheter in the ear) and one from approximately 1-, 2-, and 3-cm downstream from the deposition site. Each section included skin, cartilage, vein and other soft tissue. These tissues were then embedded in paraffin, sectioned and stained with hematoxylin and eosin, and examined via light microscopy.

[1] = emulsion with DEA buffer 0.05%, pH 9, Bolus dose, 2 mg/kg (conc. 10 mg/mL), 0 h
[2] = emulsion with DEA buffer 0.05%, pH 9, Bolus dose, 2 mg/kg (conc. 10 mg/mL), 48 h
[3] = emulsion with TRIS buffer 5 mM, pH 9, Bolus dose, 2 mg/kg (conc. 10 mg/mL), 0 h
[4] = emulsion with TRIS buffer 5 mM, pH 9, Bolus dose, 2 mg/kg (conc. 10 mg/mL), 48 h
[5] = emulsion with TRIS buffer 20 mM, pH 9, 2-hour infusion, 2 mg/kg (conc. 0.5 mg/mL), 0 h
[6] = emulsion with TRIS buffer 20 mM, pH 9, 2-hour infusion, 2 mg/kg (conc. 0.5 mg/mL), 48 h
[7] = solution in acetate mannitol buffer, pH 4, 2 hour infusion, 2 mg/kg (conc. 0.5 mg/mL), 0 h
[8] = solution in acetate mannitol buffer, pH 4, 2 hour infusion, 2 mg/kg (conc. 0.5 mg/mL), 48 h
[9] = solution in acetate mannitol buffer, pH 4, Bolus dose, 2 mg/kg (conc. 0.5 mg/mL), 0 h
[10] = solution in acetate mannitol buffer, pH 4, Bolus dose, 2 mg/kg (conc. 0.5 mg/mL), 48 h
[11] = solution in acetate mannitol buffer, pH 4, Bolus dose, 2 mg/kg (conc. 1 mg/mL), 0 h
[12] = solution in acetate mannitol buffer, pH 4, Bolus dose, 2 mg/kg (conc. 1 mg/mL), 48 h

## C[C@@H](NCCCc1cccc(C(F)(F)F)c1)c1cccc2ccccc12 [Cinacalcet, N-(1-(R)-(1-naphthyl)ethyl]-3-[3-(trifluoromethyl)phenyl]-1-aminopropane]
Administered IV as a solution, acetate mannitol buffer at pH 4
  local venous toxicity: mild to moderate
cinacalcet-containing emulsions, compared with solution
  local venous toxicity effects: greatly reduced or completely eliminated
Emulsion buffered with either TRIS or DEA, dosed as bolus
  tolerability: well tolerated
Emulsion containing TRIS dosed as an infusion
  tolerability: well tolerated
[1]
  Edema: 0.0 ± 0.0
  Erythema: 0.3 ± 0.6
[2]
  Edema: 0.0 ± 0.0
  Erythema: 0.0 ± 0.0
Emulsion with DEA buffer 0.05%, pH 9, Bolus dose, observed for both placebo and cinacalcet emulsions
  Histopathology: Mild to moderate perivascular acute
[3]
  Edema: 0.0 ± 0.0
  Erythema: 0.0 ± 0.0
[4]
  Edema: 0.0 ± 0.0
  Erythema: 0.0 ± 0.0
Emulsion with TRIS buffer 5 mM, pH 9, Bolus dose, observed for both placebo and cinacalcet emulsions
  Histopathology: Minimal to mild perivascular acute
Emulsion with TRIS buffer 20 mM, pH 9, 2-hour infusion, 2 mg/kg (conc. 0.5 mg/mL)
  Histopathology: lipid emulsion was well tolerated as a 2 hour
[5]
  Edema: 0.0 ± 0.0
  Erythema: 0.0 ± 0.0
[6]
  Edema: 0.0 ± 0.0
  Erythema: 0.0 ± 0.0
Solution in acetate mannitol buffer, pH 4, 2 hour infusion, 2 mg/kg (conc. 0.5 mg/mL)
  Histopathology: mild to severe acute, necrotizing inflammation
[7]
  Edema: 0.0 ± 0.0
  Erythema: 0.0 ± 0.0
[8]
  Edema: 3.3 ± 1.2
  Erythema: 4.0 ± 0.0
Solution in acetate mannitol buffer, pH 4, Bolus dose, 2 mg/kg
  Histopathology: Mnimal to mild infiltrates of mixed
[9]
  Edema: 0.0 ± 0.0
  Erythema: 0.0 ± 0.0
[10]
  Edema: 1.7 ± 0.6
  Erythema: 2.7 ± 0.6
[11]
  Edema: 0.0 ± 0.0
  Erythema: 0.0 ± 0.0
[12]
  Edema: 2.0 ± 1.7
  Erythema: 2.7 ± 0.6
Solution in acetate mannitol buffer, pH 4, Bolus dose, at the higher dose
  Histopathology: Mild to severe effects seen at the higher
solution, acetate mannitol buffer at pH 4
  tolerability when administered IV: poorly tolerated
